Results published in patent publication US11365196B2, “FGFR inhibitor and application thereof” (Betta Pharmaceuticals Co., Ltd., priority 2017, dated 2022).
Where two headings read alike, the source gives them in different places.

Key:
FGFR4 = FGFR4 (Homo sapiens (Human), UniProt P22455); assay: Kinase assay Method 1, mobility shift assay; assay type: biochemical; conditions: ATP at Km, numeric values, read-out: IC50(nM) value of compounds FGFR4
NCI-H1581 cells = assay: Cell proliferation assay on NCI-H1581 (Table 7); assay type: cell-based, human
From the text: (§1) Test method: adding the appropriate volume of whole medium and the cells was suspended.

SNU-16 cells = assay: Cell proliferation assay on SNU-16, CellTiter Glo (Table 8); assay type: cell-based, human; conditions: Homo sapiens, SNU-16, 96 hrs, class symbols, read-out: IC50(nM) value of compounds on SNU-16 cells
From the text: as §1

FGFR1 = FGFR1 (Homo sapiens (Human), UniProt P11362); assay: Kinase assay Method 1, mobility shift assay; conditions: read-out: IC50(nM) value of compounds FGFR1; mobility shift assay, ATP at Km; class symbols
Protocol: Method 1: The inhibitory activity of some compounds of the present disclosure against FGFR1, FGFR2, FGFR3, FGFR4, KDR was tested by mobility shift assay (concentration of ATP is Km value).
Preparing of compounds: dilute test compounds to specific concentration using 100% DMSO

[1] = Homo sapiens, NCI-H1581, read-out: IC50(nM) value of compounds on NCI-H1581 cells
[2] = Homo sapiens, NCI-H1581, CellTiter 96 AQueous (144 hrs) or CellTiter Glo (96 hrs), class symbols, read-out: IC50(nM) value of compounds on NCI-H1581 cells

Sequence of FGFR1 (P11362 22-822): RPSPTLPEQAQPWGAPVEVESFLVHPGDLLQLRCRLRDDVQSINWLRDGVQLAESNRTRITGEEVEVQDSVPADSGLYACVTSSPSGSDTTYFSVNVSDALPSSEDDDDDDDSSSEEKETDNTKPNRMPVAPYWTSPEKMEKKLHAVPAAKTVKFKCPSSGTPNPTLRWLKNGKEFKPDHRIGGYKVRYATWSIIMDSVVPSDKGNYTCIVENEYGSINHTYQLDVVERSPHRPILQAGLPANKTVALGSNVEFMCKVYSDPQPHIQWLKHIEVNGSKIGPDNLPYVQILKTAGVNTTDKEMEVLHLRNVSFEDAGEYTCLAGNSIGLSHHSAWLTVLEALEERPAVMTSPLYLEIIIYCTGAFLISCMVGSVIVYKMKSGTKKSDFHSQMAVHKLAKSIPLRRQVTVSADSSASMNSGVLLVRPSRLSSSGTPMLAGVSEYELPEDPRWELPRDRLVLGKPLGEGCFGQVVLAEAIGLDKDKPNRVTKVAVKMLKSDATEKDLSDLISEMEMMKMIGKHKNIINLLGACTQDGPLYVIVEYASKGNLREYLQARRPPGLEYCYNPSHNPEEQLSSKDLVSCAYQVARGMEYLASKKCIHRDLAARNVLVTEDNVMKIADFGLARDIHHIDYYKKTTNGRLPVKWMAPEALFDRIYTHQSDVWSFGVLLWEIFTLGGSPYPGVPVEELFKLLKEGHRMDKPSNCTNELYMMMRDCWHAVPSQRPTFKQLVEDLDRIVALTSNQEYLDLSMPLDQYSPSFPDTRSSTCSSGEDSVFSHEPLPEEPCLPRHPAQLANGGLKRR
Sequence of FGFR4 (P22455 22-802): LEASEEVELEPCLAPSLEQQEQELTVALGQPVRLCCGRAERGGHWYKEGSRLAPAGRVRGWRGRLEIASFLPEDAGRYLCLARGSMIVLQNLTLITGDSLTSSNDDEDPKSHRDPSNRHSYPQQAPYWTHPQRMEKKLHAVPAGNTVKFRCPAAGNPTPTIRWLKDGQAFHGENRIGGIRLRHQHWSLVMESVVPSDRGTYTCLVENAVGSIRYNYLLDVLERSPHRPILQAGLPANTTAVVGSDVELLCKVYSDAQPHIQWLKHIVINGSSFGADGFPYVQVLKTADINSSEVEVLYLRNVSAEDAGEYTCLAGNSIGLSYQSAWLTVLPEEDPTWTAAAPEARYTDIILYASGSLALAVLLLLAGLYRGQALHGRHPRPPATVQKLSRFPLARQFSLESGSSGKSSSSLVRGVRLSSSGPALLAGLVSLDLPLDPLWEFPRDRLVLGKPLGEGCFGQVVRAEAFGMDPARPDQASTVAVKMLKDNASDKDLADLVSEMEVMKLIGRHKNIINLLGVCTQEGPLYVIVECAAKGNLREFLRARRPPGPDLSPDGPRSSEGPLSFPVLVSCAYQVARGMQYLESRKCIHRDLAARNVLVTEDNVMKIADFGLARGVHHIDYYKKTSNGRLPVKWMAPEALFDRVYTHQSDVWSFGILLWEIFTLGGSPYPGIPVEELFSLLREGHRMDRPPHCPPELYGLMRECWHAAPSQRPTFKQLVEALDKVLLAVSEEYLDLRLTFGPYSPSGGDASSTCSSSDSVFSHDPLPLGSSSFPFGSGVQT

CCN1CCC(c2ccc(Nc3ncc4cc(-c5cc(OC)cc(OC)c5Cl)c5nncn5c4n3)cc2)CC1 [Compound 102, 6-(2-chloro-3,5-dimethoxyphenyl)-N-(4-(1-ethylpiperidin-4-yl)phenyl)-[1,2,4]triazolo[4′,3′:1,6]pyrido[2,3-d]pyrimidin-2-amine]
IC50 (FGFR4): 60 nM
IC50 (NCI-H1581 cells; [1]): 0.7 nM

Cc1nc2cc(Cl)c(-c3cc4cnc(Nc5ccc(N6CCOCC6)cc5)nc4n4cnnc34)cc2[nH]1 [Compound 81, 6-(5-chloro-2-methyl-1H-benzo[d]imidazol-6-yl)-N-(4-morpholinophenyl)-[1,2,4]triazolo[4′,3′:1,6]pyrido[2,3-d]pyrimidin-2-amine]
IC50 (FGFR4): 191 nM
IC50 (NCI-H1581 cells; [1]): 9.3 nM

COc1cc(OC)c(Cl)c(-c2cc3cnc(Nc4ccc(N5CCC(N6CCOCC6)CC5)cc4)nc3n3cnnc23)c1Cl [Compound 65, 6-(2,6-dichloro-3,5-dimethoxyphenyl)-N-(4-(4-morpholinopiperidin-1-yl)phenyl)-[1,2,4]triazolo[4′,3′:1,6]pyrido[2,3-d]pyrimidin-2-amine]
IC50 (FGFR4): 6.7 nM
IC50 (NCI-H1581 cells; [1]): 0.6 nM

CCN1CCN(c2ccc(Nc3ncc4cc(-c5cc6[nH]c(C)nc6cc5Cl)c5nncn5c4n3)cc2)CC1 [Compound 67, 6-(5-chloro-2-methyl-1H-benzo[d]imidazol-6-yl)-N-(4-(4-ethylpiperazin-1-yl)phenyl)-[1,2,4]triazolo[4′,3′:1,6]pyrido[2,3-d]pyrimidin-2-amine]
IC50 (FGFR4): 90 nM
IC50 (NCI-H1581 cells; [1]): 1 to 10 nM

COc1cc(OC)c(Cl)c(-c2cc3cnc(Nc4ccc(N5CCC(N6CCOCC6)CC5)cc4)nc3n3cnnc23)c1 [Compound 29, 6-(2-chloro-3,5-dimethoxyphenyl)-N-(4-(4-morpholinopiperidin-1-yl)phenyl)-[1,2,4]triazolo[4′,3′:1,6]pyrido[2,3-d]pyrimidin-2-amine]
IC50 (SNU-16 cells): < 1 nM
IC50 (NCI-H1581 cells; [1]): 2 nM

C=CC(=O)N1CCC2(CC1)CN(CCCc1nc3c(-c4c(Cl)c(OC)cc(OC)c4Cl)cc4cnc(NC)nc4n3n1)C2 [Compound 138, 1-(2-(3-(4-(2,6-dichloro-3,5-dimethoxyphenyl)-8-(methylamino)-[1,2,4]triazolo[1′,5′:1,6]pyrido[2,3-d]pyrimidin-2-yl)propyl)-2,7-diazaspiro[3.5]nonan-7-yl)prop-2-en-1-one]
IC50 (SNU-16 cells): 1 to 10 nM

COc1cc(OC)c(Cl)c(-c2cc3cnc(Nc4ccc(N5CC6CCC(C5)N6)cc4)nc3n3cnnc23)c1 [Compound 51, N-(4-(3,8-diazabicyclo[3.2.1]octan-3-yl)phenyl)-6-(2-chloro-3,5-dimethoxyphenyl)[1,2,4]triazolo[4′,3′:1,6]pyrido[2,3-d]pyrimidin-2-amine]
IC50 (FGFR4): 42 nM
IC50 (NCI-H1581 cells; [1]): 1.4 nM

COc1cc(OC)c(Cl)c(-c2cc3cnc(Nc4ccc(N5C[C@@H](C)N[C@@H](C)C5)cc4)nc3n3cnnc23)c1 [Compound 50, 6-(2-chloro-3,5-dimethoxyphenyl)-N-(4-((3S,5R)-3,5-dimethylpiperazin-1-yl)phenyl)-[1,2,4]triazolo[4′,3′:1,6]pyrido[2,3-d]pyrimidin-2-amine]
IC50 (FGFR4): 35 nM
IC50 (SNU-16 cells): < 1 nM
IC50 (NCI-H1581 cells; [1]): 0.2 nM

COc1cc(OC)c(Cl)c(-c2cc3cnc(Nc4ccc(N5CCN6CCOC[C@H]6C5)cc4)nc3n3cnnc23)c1 [Compound 43, (R)-6-(2-chloro-3,5-dimethoxyphenyl)-N-(4-(hexahydropyrazino[2,1-c][1,4]oxazin-8(1H)-yl)phenyl)-[1,2,4]triazolo[4′,3′:1,6]pyrido[2,3-d]pyrimidin-2-amine]
IC50 (SNU-16 cells): < 1 nM
IC50 (NCI-H1581 cells; [1]): 1 to 10 nM

CNc1ncc2cc(-c3c(Cl)c(OC)cc(OC)c3Cl)c3nc(CCCN4CCN(C(=O)C(C#N)=CC(C)C)CC4)nn3c2n1 [Compound 147, 2-(4-(3-(4-(2,6-dichloro-3,5-dimethoxyphenyl)-8-(methylamino)-[1,2,4]triazolo[1′,5′:1,6]pyrido[2,3-d]pyrimidin-2-yl)propyl)piperazine-1-carbonyl)-4-methylpent-2-enenitrile]
IC50 (SNU-16 cells): 10 to 100 nM
IC50 (NCI-H1581 cells; [2]): 10 to 100 nM

COc1cc(OC)c(Cl)c(-c2cc3cnc(Nc4ccc5c(c4)CCNC5)nc3n3cnnc23)c1 [Compound 53, 6-(2-chloro-3,5-dimethoxyphenyl)-N-(1,2,3,4-tetrahydroisoquinolin-6-yl)-[1,2,4]triazolo[4′,3′:1,6]pyrido[2,3-d]pyrimidin-2-amine]
IC50 (FGFR4): 14 nM
IC50 (NCI-H1581 cells; [1]): 0.7 nM

COc1cc(OC)c(Cl)c(-c2cc3cnc(Nc4ccc(N5C[C@@H](C)N[C@@H](C)C5)c(F)c4)nc3n3cnnc23)c1 [Compound 56, 6-(2-chloro-3,5-dimethoxyphenyl)-N-(4-((3S,5R)-3,5-dimethylpiperazin-1-yl)-3-fluorophenyl)-[1,2,4]triazolo[4′,3′:1,6]pyrido[2,3-d]pyrimidin-2-amine]
IC50 (FGFR4): 51 nM
IC50 (NCI-H1581 cells; [1]): 1.2 nM

Cc1nc2cc(Cl)c(-c3cc4cnc(Nc5ccc(N6CCN7CCC[C@@H]7C6)cc5)nc4n4cnnc34)cc2[nH]1 [Compound 84]
IC50 (SNU-16 cells): 1 to 10 nM
IC50 (NCI-H1581 cells; [2]): 1 to 10 nM
IC50 (FGFR1): < 1 nM

C=CC(=O)N1CCN(CCCc2nc3c(-c4cc(OC)cc(OC)c4Cl)cc4cnc(NC)nc4n3n2)CC1 [Compound 115, 1-(4-(3-(4-(2-chloro-3,5-dimethoxyphenyl)-8-(methylamino)-[1,2,4]triazolo[1′,5′:1,6]pyrido[2,3-d]pyrimidin-2-yl)propyl)piperazin-1-yl)prop-2-en-1-one]
IC50 (FGFR4): 6.8 nM

C=CC(=O)N1CCN(Cc2nc3c(-c4c(Cl)c(OC)cc(OC)c4Cl)cc4cnc(NC)nc4n3n2)CC1 [Compound 123, 1-(4-(2-(4-(2,6-dichloro-3,5-dimethoxyphenyl)-8-(methylamino)-[1,2,4]triazolo[1′,5′:1,6]pyrido[2,3-d]pyrimidin-2-yl)methyl)piperazin-1-yl)prop-2-en-1-one]
IC50 (FGFR4): 730 nM
IC50 (NCI-H1581 cells; [1]): 5.8 nM

CCC(=O)Nc1ccc(Cc2nnc3c(-c4cc(OC)cc(OC)c4Cl)cc4cnc(NCCN5CCOCC5)nc4n23)cc1 [Compound 96, N-(4-((6-(2-chloro-3,5-dimethoxyphenyl)-2-((2-morpholinoethyl)amino)-[1,2,4]triazolo[4′,3′:1,6]pyrido[2,3-d]pyrimidin-9-yl)methyl)phenyl)propionamide]
IC50 (NCI-H1581 cells; [2]): > 100 nM
IC50 (FGFR1): > 100 nM

COc1cc(OC)c(Cl)c(-c2cc3cnc(Nc4ccc(N5CCN(C)CC5)cc4)nc3n3cnnc23)c1 [Compound 15, 6-(2-chloro-3,5-dimethoxyphenyl)-N-(4-(4-methylpiperazin-1-yl)phenyl)-[1,2,4]triazolo[4′,3′:1,6]pyrido[2,3-d]pyrimidin-2-amine]
IC50 (NCI-H1581 cells; [2]): < 1 nM
IC50 (FGFR1): < 1 nM

COc1cc(OC)c(Cl)c(-c2cc3cnc(Nc4ccc(N(C)CCN(C)C)cc4)nc3n3cnnc23)c1 [Compound 21]
IC50 (NCI-H1581 cells; CellTiter 96 AQueous (144 hrs) or CellTiter Glo (96 hrs), class symbols, read-out: IC50(nM) value of compounds on NCI-H1581 cells): 1 to 10 nM
IC50 (FGFR1): < 1 nM

COc1cc(OC)c(Cl)c(-c2cc3cnc(Nc4ccc(N5CCN(C6CCCC6)CC5)cc4)nc3n3cnnc23)c1 [Compound 104, 6-(2-chloro-3,5-dimethoxyphenyl)-N-(4-(4-cyclopentylpiperazin-1-yl)phenyl)-[1,2,4]triazolo[4′,3′:1,6]pyrido[2,3-d]pyrimidin-2-amine]
IC50 (NCI-H1581 cells; [2]): 1 to 10 nM
IC50 (FGFR1): < 1 nM

Cc1nc2cc(Cl)c(-c3cc4cnc(Nc5ccc(N6CCC(N(C)C)CC6)cc5)nc4n4cnnc34)cc2[nH]1 [Compound 78, 6-(5-chloro-2-methyl-1H-benzo[d]imidazol-6-yl)-N-(4-(4-(dimethylamino)piperidin-1-yl)phenyl)-[1,2,4]triazolo[4′,3′:1,6]pyrido[2,3-d]pyrimidin-2-amine]
IC50 (FGFR4): 600 nM
IC50 (NCI-H1581 cells; [1]): 5.3 nM

COc1cc(OC)c(Cl)c(-c2cc3cnc(Nc4ccc(C5CCNCC5)cc4)nc3n3cnnc23)c1 [Compound 102-2]
IC50 (FGFR4): 26 nM
IC50 (NCI-H1581 cells; read-out: IC50(nM) value of compounds on NCI-H1581 cells): 0.9 nM

COc1cc(OC)c(Cl)c(-c2cc3cnc(Nc4ccc(CN5CCN(C)CC5)cc4)nc3n3cnnc23)c1 [Compound 46, 6-(2-chloro-3,5-dimethoxyphenyl)-N-(4-((4-methylpiperazin-1-yl)methyl)phenyl)-[1,2,4]triazolo[4′,3′:1,6]pyrido[2,3-d]pyrimidin-2-amine]
IC50 (FGFR4): 56 nM
IC50 (NCI-H1581 cells; [1]): 2.4 nM

CCN1CCN(Cc2ccc(Nc3ncc4cc(-c5cc(OC)cc(OC)c5Cl)c5nncn5c4n3)cn2)CC1 [Compound 111, 6-(2-chloro-3,5-dimethoxyphenyl)-N-(6-((4-ethylpiperazin-1-yl)methyl)pyridin-3-yl)-[1,2,4]triazolo[4′,3′:1,6]pyrido[2,3-d]pyrimidin-2-amine]
IC50 (FGFR4): 288 nM
IC50 (NCI-H1581 cells; [1]): 8.2 nM

COc1cc(OC)c(Cl)c(-c2cc3cnc(Nc4ccc(N5CCN(C6COC6)CC5)cc4)nc3n3cnnc23)c1 [Compound 13, 6-(2-chloro-3,5-dimethoxyphenyl)-N-(4-(4-(oxetan-3-yl)piperazin-1-yl)phenyl)-[1,2,4]triazolo[4′,3′:1,6]pyrido[2,3-d]pyrimidin-2-amine]
IC50 (NCI-H1581 cells; [2]): 1 to 10 nM
IC50 (FGFR1): < 1 nM
